Experiments:
Zea mays protoplasts [1] = assay: Colony formation from cultured Zea mays protoplasts in the presence of plant growth regulators (auxins) (Example 21); format: cell-based; conditions: 0.54 million protoplasts per ml, counted after 3 weeks
Method: (§1) The plates containing the protoplasts in agarose are placed in the dark at 26 °C. Within 14 days, cell colonies arise from the protoplasts. The agarose containing the colonies is transferred to the surface of a 9 cm diameter petri dish containing 30 ml of N6 medium with 2 mg/liter 2,4-D, solidified with 0.24% w/v Gelrite^R (2N6). The colonies are cultured to give callus. The callus is cultured further in the dark at 26 °C and callus pieces subcultured every 2 weeks onto fresh N6 medium containing 2 mg/liter 2,4-D (solidified with 0.24% w/v Gelrite^R).
Protoplasts are resuspended in the last step of example 3 in 6/7 strength KMC solution at 5 million per ml.
Aliquots of protoplast suspension are placed in 6cm diameter petri dishes at room temperature. 2 ml of KM medium containing 1.2% w/v SeaPlaque^R agarose, and 2,4-D, Picloram, Dicamba or para-Chlorophenoxyacetic acid (pCPA) to give the correct plant growth regulator concentrations is added. The final protoplast density used is 0.54 million per ml. The agarose and protoplasts are mixed well, and the medium allowed to gel.
The dishes are cultured as described in example 10. After a period of 3 weeks, macroscopic colonies arising in the dishes are counted.

Zea mays protoplasts [2] = assay: Colony formation from Zea mays protoplasts with DMSO and O-acetyl-salicylic acid in the presence of 2,4-D (Example 20); format: cell-based; conditions: for number of formed colonies: no additions, 0.75 million protoplasts per ml, counted after 3 weeks
Method: as §1
Protoplasts are resuspended in the last step of example 3 in 6/7 strength KMC solution at 7.5 million per ml. The O-acetyl-salicylic acid is dissolved at 2.5 mg/ml in KM medium. The solution is filter sterilized. The O-acetyl-salicylic acid is then added to the culture medium immediately before use. Aliquots of protoplast suspension are placed in 6 cm diameter petri dishes at room temperature. 3 ml of KM medium containing 1.2% w/v SeaPlaque^R agarose, 2,4-D and O-acetyl salicylic acid is added so as to give the correct 2,4-D and O-acetyl-salicylic acid concentrations and a protoplast density of 0.5 million per ml. The agarose and protoplasts are mixed well, and the medium allowed to gel.
The protoplasts are prepared and plated at 0.75 million per ml as described in example 18, using 1 ml of medium per 3.5 cm diameter petri dish. O-acetyl-salicylic acid is included in the medium. The O-acetyl-salicylic acid is dissolved in DMSO and then added to the medium before plating of the protoplasts. To obtain a solution in DMSO, 1 g of O-acetyl-salicylic acid is dissolved in 10 ml DMSO, and added to 90 ml distilled water. The solution is then filter sterilized before use.
The dishes are cultured as described in example 10. After a period of 3 weeks, macroscopic colonies arising in the dishes are counted. […]

[3] = plant growth regulator concentration 0.1 mg/liter
[4] = plant growth regulator concentration 1 mg/liter
[5] = plant growth regulator concentration 10 mg/liter

Structure (SMILES)	number of colonies formed (Zea mays protoplasts [1]; [3])	number of colonies formed (Zea mays protoplasts [1]; [4])	number of colonies formed (Zea mays protoplasts [1]; [5])	number of formed colonies (Zea mays protoplasts [2]; 2,4-D 0.1 mg/liter)	number of formed colonies (Zea mays protoplasts [2]; 2,4-D 0.3 mg/liter)	number of formed colonies (Zea mays protoplasts [2]; 2,4-D 1.0 mg/liter)	colony forming efficiency (Zea mays protoplasts [2]; DMSO alone, 1% v/v)	effect on the stimulatory activity of O-acetyl-salicylic acid (Zea mays protoplasts [2]; O-acetyl-salicylic acid dissolved in DMSO)
O=C(O)COc1ccc(Cl)cc1Cl [2,4-D, 2,4-dichlorophenoxyacetic acid]	140	0	0	1	2	45	–	–
COc1c(Cl)ccc(Cl)c1C(=O)O [dicamba, 3,6-dichloro-2-methoxy benzoic acid]	62	288	0	–	–	–	–	–
C[S+](C)[O-] [DMSO]	–	–	–	–	–	–	no significant increase or decrease	potentiates the stimulatory activity of the O-acetyl-salicylic acid
O=C(O)COc1ccc(Cl)cc1 [pCPA, para-chlorophenoxyacetic acid]	52	0	0	–	–	–	–	–

Source: EP0513849B1, “Method of preparing transgenic Zea mays plants regenerated from protoplasts or protoplast-derived cells” (Novartis AG, priority 1987, dated 1988)
